Test results: paper PMC5444695, “CM363, a novel naphthoquinone derivative which acts as multikinase modulator and overcomes imatinib resistance in chronic myelogenous leukemia” (Oncotarget, 2016)

Legend:
T47D cells = assay: MTT cell viability assay, T47D cells; assay type: cell-based; conditions: Homo sapiens, 48 h, read-out: IC50 (μM) Mean ± SD
Procedure: (§1) All cell lines were purchased from the American Type Culture Collection (ATCC). The cell lines were growth at 37°C under 5% CO2 under humidified atmosphere. The cell lines K562 (derived from patients during the blast crisis phase of CML and IM sensitive), K562-R (IM resistance human CML), KmycBT15I (KBTI; IM resistant human CML, expressing the Bcr-Abl […] mutant), HEL (human erythroleukemia), HL60 (human acute myeloid leukemia), MOLM-13 (human acute myeloid leukemia), MV4.11 (human acute monocytic leukemia), HCT-15 (human colorectal adenocarcinoma), PC3 (human prostate cancer), MCF7 (human breast cancer), NCTC3749 (mouse lymphoma) as well as the MRC.5 cells (non-malignant human lung fibroblasts) were maintained in RPMI-1640 medium. The cell lines L1210 (mouse lymphocytic leukemia cells), Raw (mouse macrophage), HeLa (human epithelial cervix cancer), U-2 OS (human osteosarcoma), MG63 (human osteosarcoma) and T47D (human breast cancer adenocarcinoma) were maintained in DMEM. HEK293 cells stably expressing the GH receptor (HEKGHR) were maintained in DMEM-F12 medium. […]
(§2) Cells were seeded in 96-well plates (BD Falcon, France) at exponential growth density (5000–20000 cells/well) and treated with vehicle (0.05% DMSO) or compound (0.01 to 10 μM) for 48–72 h. […] Optical density was measured at 595 nm with the iMark Microplate Reader (BioRad, CA, USA).

[1] = tested on: IM resistant K562 cells (K562-R); assay: Live-cell imaging (IncuCyte HD) of proliferation, IM resistant K562 cells; assay type: cell-based; conditions: Homo sapiens, 96 h, 4-day period, area under curve, read-out: IC50AUC, cytostatic effect on cell growth
Procedure: (§3) Kinetic measurements of cell proliferation and cytotoxicity were carried out by using the IncuCyte^TM HD real time imaging system (Essen BioScience, Hertfordshire, United Kingdom). After seeding in a polylysine-coated 96 well-plates, K562 cells were treated with different concentrations of compound. This IncuCyte™ microscope permits the acquisition of automated phase contrast images. Individual images are processed by an imbedded contrast-based confluence algorithm, which compute monolayer confluence for each image and at each time point. Multiple images are collected per well and averaged to provide a representative statistical measure of confluence.

HL60 cells = assay: MTT cell viability assay, HL60 cells; assay type: cell-based; conditions: Homo sapiens, HL-60, HL60, 48 h, read-out: IC50 (μM) Mean ± SD
Procedure: as §1, §2

K562 cells [2] = assay: MTT cell viability assay, K562 cells; assay type: cell-based, human; conditions: for IC50: Homo sapiens
Procedure: All cell lines were purchased from the American Type Culture Collection (ATCC). The cell lines were growth at 37°C under 5% CO2 under humidified atmosphere. The cell lines K562 (derived from patients during the blast crisis phase of CML and IM sensitive), K562-R (IM resistance human CML), KmycBT15I (KBTI; IM resistant human CML, expressing the Bcr-Abl […] mutant), HEL (human erythroleukemia), HL60 (human acute myeloid leukemia), MOLM-13 (human acute myeloid leukemia), MV4.11 (human acute monocytic leukemia), HCT-15 (human colorectal adenocarcinoma), PC3 (human prostate cancer), MCF7 (human breast cancer), NCTC3749 (mouse lymphoma) as well as the MRC.5 cells (non-malignant human lung fibroblasts) were maintained in RPMI-1640 medium. The cell lines L1210 (mouse lymphocytic leukemia cells), Raw (mouse macrophage), HeLa (human epithelial cervix cancer), U-2 OS (human osteosarcoma), MG63 (human osteosarcoma) and T47D (human breast cancer adenocarcinoma) were maintained in DMEM. HEK293 cells stably expressing the GH receptor (HEKGHR) were maintained in DMEM-F12 medium. The human breast cancer cell line SKBR3 was maintained in McCoy’s 5A medium. Cell culture medium was supplemented with 10% FBS, L-glutamine (2 mM) and PEST. In addition, the cell culture medium for T47D was supplemented with 1 mM NaPyr and 10 mM HEPES. Human peripheral blood mononuclear cells (PBMC) were isolated from heparin-anticoagulated blood of healthy volunteers by centrifugation with Ficoll-Paque Plus (Amersham Biosciences).
Cells were seeded in 96-well plates (BD Falcon, France) at exponential growth density (5000–20000 cells/well) and treated with vehicle (0.05% DMSO) or compound (0.01 to 10 μM) for 48–72 h. The mitochondrial metabolization of the tetrazolium salt 3-(4,5-methyltiazol-2yl-)-2,5diphenyl-tetrazolium bromide] (MTT) (Applichen, Germany) was used as indicator of cell viability. Optical density was measured at 595 nm with the iMark Microplate Reader (BioRad, CA, USA).

HEL cells = assay: MTT cell viability assay, HEL cells; assay type: cell-based; conditions: Homo sapiens, 48 h, read-out: IC50 (μM) Mean ± SD
Procedure: as §1, §2

U-2 OS cells = assay: MTT cell viability assay, U-2 OS cells; assay type: cell-based; conditions: Homo sapiens, U2OS, 48 h, read-out: IC50 (μM) Mean ± SD
Procedure: as §1, §2

PMBC = assay: MTT cell viability assay, PMBC; assay type: cell-based; conditions: Homo sapiens, 48 h, read-out: IC50 (μM) Mean ± SD
Procedure: as §1, §2

Stat5 response element = assay: Stat5 luciferase reporter gene assay in HEKGHR cells; assay type: cell-based; conditions: 1 h pretreatment then GH 7 h
Procedure: The HEKGHR cell line was used to determine the effects of compounds on GH-regulated Stat5 transcriptional activity. HEKGHR cells were transfected with pSPI-GLE1-Luc (1 μg) overnight using Metafectene Pro® (Biontex, Germany). The β-galactosidase expression plasmid (0.05 μg) (Thermo Scientific, Illinois, USA) was used for controlling transfection efficiency. The stable reporter cell line HeLa/Stat3-luc (Panomics, Fremont, USA), was used to determine the effects of compounds on oncostatin M-regulated Stat3 transcriptional activity. Cells were seeded in a 6-well culture plate (Nunc, Denmark) and they were serum deprived (0.5% FBS) for 16 h. Then, cells were treated with vehicle (0.05% DMSO) or compound (0.1 to 10 μM) during 1 h before rhGH (50 nM) or oncostatin M (50 ng/ml) were added for 7 h for induction of Stat5- or Stat3-dependent transcriptional activities, respectively. Cells were lysed in Passive Lysis Buffer and luciferase activity was determined by the Luciferase Assay System (Thermo Scientific, Illinois, USA). Luciferase activity was measured using the microplate reader Fluoroskan Ascent FL (Labsystems). Results are expressed as relative luciferase units (RLU) per mg of protein content and β-galactosidase activity and normalized to those obtained for vehicle-treated control cells.

SKBR3 cells = assay: MTT cell viability assay, SKBR3 cells; assay type: cell-based; conditions: Homo sapiens, SK-BR-3, SKBR3, 48 h, read-out: IC50 (μM) Mean ± SD
pYStat5 = assay: GM-CSF-induced pYStat5 in primary mouse macrophages; assay type: cell-based; conditions: 3 μM CM363 for 0.5 h, data not shown
MG63 cells = assay: MTT cell viability assay, MG63 cells; assay type: cell-based; conditions: Homo sapiens, MG-63, MG63, 48 h, read-out: IC50 (μM) Mean ± SD
Procedure: as §1, §2

HEK cells = assay: MTT cell viability assay, HEK cells; assay type: cell-based; conditions: Homo sapiens, HEK293, 48 h, read-out: IC50 (μM) Mean ± SD
Procedure: as §1, §2

HeLa cells = assay: MTT cell viability assay, HeLa cells; assay type: cell-based; conditions: Homo sapiens, 48 h, read-out: IC50 (μM) Mean ± SD
Procedure: as §1, §2

HCT-15 cells = assay: MTT cell viability assay, HCT-15 cells; assay type: cell-based; conditions: Homo sapiens, HCT-15, 48 h, read-out: IC50 (μM) Mean ± SD
Procedure: as §1, §2

K562 cells [3] = assay: Live-cell imaging (IncuCyte HD) of proliferation and cytotoxicity, K562 cells; assay type: cell-based, human; conditions: Homo sapiens
Procedure: as §3

[4] = as above; assay type: cell-based, human; conditions: human, K562 cells; K562, continuous exposure over 4-day period, area under curve; read-out: EC50AUC, cytotoxic effect
Procedure: as §3

NCTC cells = assay: MTT cell viability assay, NCTC cells; assay type: cell-based; conditions: Mus musculus, 48 h, read-out: IC50 (μM) Mean ± SD
Procedure: as §1, §2

## N#Cc1ccc(C2C3=C(CCCC3=O)OC3=C2C(=O)c2ccccc2C3=O)cc1 (centres unmarked) [CM363, 4-(1,6,11-trioxo-2,3,4,6,11,12-hexahydro-1H-benzo[b]xanthen-12-yl)benzonitrile]
T47D cells
  IC50: 1.3 ± 1.2 µM
[1]
  IC50: 500 ± 100 nM
HL60 cells
  IC50: 1.3 ± 0.6 µM
K562 cells [2]; IM sensitive K562, 72 h, MTT (Fig 10D), read-out: IC50, cell viability
  IC50: ~0.6 µM
K562 cells [2]; K562, 48 h, MTT, read-out: IC50 (μM) Mean ± SD
  IC50: 0.7 ± 0.5 µM
K562 cells [2]; IM sensitive K562, 72 h, MTT (Fig 10D)
  lowest concentration at which inhibition was detected: 0.3 µM
HEL cells
  IC50: 1.3 ± 0.3 µM
U-2 OS cells
  IC50: 4.3 ± 1.2 µM
PMBC
  IC50: > 5 µM
Stat5 response element
  Stat5-dependent reporter gene (luciferase) activity: inhibit
SKBR3 cells
  IC50: 2.6 ± 0.8 µM
pYStat5
  inhibition of GM-CSF-induced (10 min) pYStat5: complete inhibition
MG63 cells
  IC50: 1.6 ± 0.9 µM
HEK cells
  IC50: 0.6 ± 0.2 µM
HeLa cells
  IC50: 4.8 ± 0.4 µM
HCT-15 cells
  IC50: 3.3 µM
K562 cells [3]; 96 h, IM sensitive K562, continuous exposure over 4-day period, area under curve, read-out: IC50AUC, cytostatic effect on cell growth
  IC50: 600 ± 300 nM
K562 cells [3]; K562, 2 h transient exposure, then additional 72 h without compound, read-out: IC50AUC, cytostatic effect after transient exposure
  IC50: 1900 ± 500 nM
[4]
  EC50 at 4 days: 1100 ± 400 nM
NCTC cells
  IC50: 1.1 ± 0.7 µM
